Laboratory results: PMC8769378, “Underlining the Importance of Peripheral Protic Functional Groups to Enhance the Proton Exchange of Gd-Based MRI Contrast Agents” (Inorganic Chemistry, 2021)

Experiments:
[1] = Protonation constants of the Gd^III complexes by pH potentiometry; type: physicochemical; conditions: 0.15 M NaCl, 298 K
From the text: The metal complexes of biomedical interest must show a high in vivo stability, which includes high thermodynamic stability and kinetic inertness to allow targeting applications and to avoid possible toxic effects derived by metal ion and ligand release via transmetalation or transchelation reactions.[2],[3],[13] The protonation constants of L2 as well as the stability and the protonation constants of GdL2 and those of the most important endogenous divalent metal complexes (Ca^II-, Zn^II-, and Cu^II) were determined by pH potentiometry (Table 1 and Table S1). In the case of GdL1, we were interested in determining the dissociation constant of the hydroxyl group that was measured also by pH potentiometry (Table 1). […]
The stability and protonation constants of Ca^2+, Zn^2+, and Cu^2+ complexes formed with the […] ligand were determined by pH potentiometric titration. […] The protonation constants of the GdL1 and GdL2 complexes were determined using pH potentiometry by titrating the preprepared complexes from pH = 3.0 to pH = 12 for GdL2 and from pH = 4.0 to pH = 12 for GdL1 with 0.2 M NaOH. The stability constants of GdL2 were determined by the “out-of-cell” technique because of the slow formation reaction. The pH range of the complexation equilibria and the time needed to reach the equilibria were determined by relaxometry for the formation of GdL2. […]

[2] = Stability and protonation constants of Cu^II complexes by spectrophotometry; type: physicochemical
Method: The stability constants of CuL2 were determined by spectrophotometry studying the Cu^2+–L2 systems at the absorption band of Cu^2+ complexes at [H^+] = […] in the wavelength range 210–350 nm. The concentrations of Cu^2+ and L2 were 0.72 mM. The H^+ concentration in the samples was adjusted with the addition of calculated amounts of 3 M HCl. (I = [Na^+] + [H^+] = 0.15, [H^+] ≤ 0.15 M). The samples were kept at 25 °C for 1 week. The absorbance values of the samples were determined at 11 wavelengths (260, 269, 278, 287, 296, 305, 314, 323, 332, 341, and 350 nm). For the calculations of the stability and protonation constants of the […], the molar absorptivities of CuCl2, CuL2, Cu(HL2), Cu(H2L2), and Cu(H3L2) were determined by recording the spectra of 1.0 × 10^–3, 3.0 × 10^–4, 6.0 × 10^–4, and 9.0 × 10^–4 M solutions of CuCl2 and CuL2 in the pH range 1.7–7.5. The pH was adjusted by stepwise addition of concentrated NaOH or HCl solutions. The spectrophotometric measurements were made with the use of a PerkinElmer Lambda 365 UV–vis spectrophotometer at 25 °C, using 1.0 cm cells. The protonation and stability constants were calculated with the PSEQUAD program.[35]
The stability and protonation constants of CaII-, ZnII-, CuII- and GdIII-complexes of L2, expressed by Eqs. (S2) and (S3), were determined by pH-potentiometry and spectrophotometry at 25 °C in 0.15 M […]
where i=0, 1, 2, 3. The KML and KMHiL values of CaII-, ZnII- and CuII-L2 complexes were calculated from the pH-potentiometric titration data obtained at 1:1 metal to ligand concentration ratios. In the calculations, the best fitting of the mL NaOH – pH data was obtained by assuming the formation of […]
ML, MHL, MH2L and MH3L species. […]
– pH data of the “out-of-cell” samples, which had equilibrium pH values in the range of 2.0 – 4.0.
For the complete characterization of the Gd3+-L2 system, the GdL2 complex (which is formed completely at about pH=3.5) was titrated with 0.2 M NaOH solution in the pH range 3.5 – 12.0.
(also on this page, place not known: MH 2L H3L w as derivative s “out -of-cage” *Ln(H 2DOTA)), groups , Ln III-ion donor s . Ln III system. 11,12 th out -of-cage * KGd(H2L) Gd 3+ - ligand 2. 0 Gd 3+-L2 GdL 2 is pH= 3.5) M pH ]L][M[ ]ML[K ML = ]H][LMH[ ]LMH[K 1i i LMHi + − = ]LH][Ln[ )]LH(Ln[K 2 3 2 )LH(Ln 2 + * =) […]
the deprotonation of the Gd(HL) and GdL species, respectively. […]
By taking into account the protonation constants of the ligand L2, the stability constant of the *Gd(H2L2) intermediate and the stability and protonation constant of the GdL2 complex, the species distribution of the Gd3+ - L2 system was calculated (Figure S1). […]
Then, the stability and protonation constants of CuL2 were determined by spectrophotometry. […]

Gd(L)H–1 (log KGd(L)H-1, protonation constant of the alkoxide) [1]: 9.58 (3)
Gd(HL) (log K, protonation constant of the Gd complex) ([1]; carboxylate of the 2-hydroxypropanoic arm): 3.36 (3)
CuH2L (log K) ([2]; 0.15 M NaCl, 25 °C): 3.36 (2)
CuH3L (log K) ([2]; 0.15 M NaCl, 25 °C): 1.36 (8)
CuHL (log K, protonation constant of the complex) ([2]; 0.15 M NaCl, 25 °C): 3.84 (2)
CuL (log K, stability constant) ([2]; spectrophotometry, I = [Na^+]+[H^+] = 0.15 M, [H^+] ≤ 0.15 M, 298 K): 21.87 (6)
SMILES: O=C(O)CN1CCN(CC(=O)O)CCN(C[C@@H](O)C(=O)O)CCN(CC(=O)O)CC1 [L2, (R)2,2′,2″-(10-(2-Carboxy-2-hydroxyethyl)-1,4,7,10-tetraazacyclododecane-1,4,7-triyl) Triacetic Acid]
